# Columns and labels:
# [1] = system: human skeletal muscle myoblasts; assay: Proliferation assay of human primary myoblasts (methylene blue); assay type: cell-based; details: 0-10 μg/ml, 96 h, FIG. 12B
# Procedure: Human skeletal muscle myoblasts (Cambrex, Australia) were seeded in 96-well tissue culture plates (Nunc, Roskilde, Denmark) at a cell density of 2000 cells per well in 200 μl of Skeletal Muscle Basal Medium (Cambrex, Australia) supplemented with foetal bovine serum (FBS, 10% v/v, Cambrex, Australia), and incubated overnight at 37° C. with 5% CO2. The medium was replaced with Dulbecco's modified Eagle's medium (DMEM, Invitrogen, California) supplemented with 5% foetal bovine serum (FBS, Invitrogen, California), penicillin (1×10^5 IU/l, Sigma, St Louis, Mo., USA) and streptomycin (100 mg/l, Sigma) buffered with NaHCO3 containing phenol red (7.22 nmol/l) as a pH indicator with 0, 0.1, 1, 5 and 10 μg/ml rhMSV38 or roMSV47 protein in a semi-random arrangement of eight replicates (n=8) for each test medium. Plates were incubated at 37° C. with 5% CO2 for 96 hours, and then the medium was removed. The wells were washed with 200 μl of phosphate buffered saline (PBS, Oxoid, UK) buffer and fixed with 100 μl of 10% formaldehyde, 0.9% NaCl solution for at least one hour. The fixative was then removed and 100 μl of 1% methylene blue stain in 0.01 M borate buffer (pH 8.5) was added to each well and incubated for 30 min at room temperature. Excess stain was removed by four sequential washes in borate buffer. Methylene blue was eluted from the cells by the addition of 100 μl 1:1 (v/v) ethanol/0.1 HCl. The plates were gently shaken and the absorbance was measured at 655 nm using a microplate photometer (VersaMax, Molecular Devices, CA).
# Human skeletal muscle myoblasts (Cambrex, Australia) were seeded in 96-well tissue culture plates (Nunc, Roskilde, Denmark) at a cell density of 2000 cells per well in 200 μl of Skeletal Muscle Basal Medium (Cambrex, Australia) supplemented with foetal bovine serum (FBS, 10% v/v, Cambrex, Australia), and incubated overnight at 37° C. with 5% CO2. The medium was replaced with Dulbecco's modified Eagle's medium (DMEM, Invitrogen, California) supplemented with 5% foetal bovine serum (FBS, Invitrogen, California), penicillin (1×10^5 IU/l, Sigma, St Louis, Mo., USA) and streptomycin (100 mg/l, Sigma) buffered with NaHCO3 containing phenol red (7.22 nmol/l) as a pH indicator with no added protein, 1.5 or 3.0 μg/ml recombinant bovine mature myostatin alone and with combination of 0.3, 1, 3, 10 molar ratio of rhMSV38 to myostatin, and the same amounts of rhMSV38 without myostatin in a semi-random arrangement of eight replicates (n=8) for each test medium. Plates were incubated at 37° C. with 5% CO2 for 48 hours, and then the medium was removed. […] The plates were gently shaken and the absorbance was measured at 655 nm using a microplate photometer (VersaMax, Molecular Devices, CA).
# [2] = system: rats bearing the AH130 tumour; assay: Muscle mass during cancer-induced cachexia, rats with AH130 tumour; assay type: in vivo, rat; details: 1 μg/g bodymass s.c. twice daily for 6 d, six hind limb muscles, FIG. 18
# Procedure: In this study, 21 male rats (three months of age) were allocated at random into three groups of seven. Group one was injected i.p. with sterile saline (non-cancer controls), groups two and three were inoculated i.p. with 100 μl of the AH130 tumour (Baracos et al 1995). Groups one and two were injected twice daily s.c. for six days with sterile saline, while group three was injected twice daily s.c. for six days with 1 μg/g bodymass with roMSV47. Rats were killed at day six and, at death, skeletal muscles (biceps femoris, gastrocnemius, tibialis anterior, quadriceps femoris, plantaris and soleus) were excised from the right hind limb of each rat and the wet mass expressed as a percent of the initial body mass on day 0.
# The ascites hepatoma 130 (AH130) was obtained as a gift from Dr Vicki Baracos (University of Alberta, Edmonton, Alberta, Canada) and stored in cryovials in liquid nitrogen in a solution of 50% DMSO and 10% BSA. An aliquot was retrieved and thawed and 1 ml was injected i.p. into each of three donor rats and allowed to grow for seven days. The rats were killed by CO2 asphyxiation followed by cervical dislocation. […] The volume of ascites in the peritoneal cavity was removed with a syringe and the volume recorded. Six muscles in the right hind limb (biceps femoris, gastrocnemius, soleus, plantaris, tibialis anterior and quadriceps femoris) were excised and their mass recorded. […]
substance,measurement,setting,value
"roMSV47: 47 amino acid C-terminal mature ovine MSV fragment (SEQ ID NO: 50), recombinant from E. coli (IIFLEVYIQFCSILGEAVFKRQSKSIHFCQNFKIIACLCNTAAFRMK; Ovis aries)",proliferation of human myoblasts,[1],able to stimulate human myoblast proliferation
same,reduction of generalised wasting of skeletal muscle induced by cancer,[2],20%
